Results from patent US20260206755A1, “COMPOUNDS AND COMPOSITIONS HAVING KNOCK-DOWN OR BLOOD FEED INHIBITION ACTIVITY AGAINST INSECT PESTS” (priority 2017, published 2026).
Read-outs that look alike come from different tables or passages of the source.

Tested on: Anopheles stephensi
Assay: Anopheles stephensi treated well plate contact test: knockdown and mortality
Format: in vivo
Conditions: for pest or weed control at 0.02 ppm: test compound 0.02 ppm
How it was run: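 Well surfaces coated with ethanol solution of compound at a defined concentration, alone or with 2 ppm TFNA-AM, then dried. Five non-blood-fed 2–5-day-old adult females per well, fed 10% sucrose; knockdown scored at 1 hour, mortality at 24 and 48 hours, replicate means reported.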

[1] = Anopheles stephensi, test compound 0.2 ppm, without TFNA-AM, knockdown after 1 hour, read-out: Knock Down, without TFNA-AM
[2] = Anopheles stephensi, test compound 2 ppm, without TFNA-AM, knockdown after 1 hour, read-out: Knock Down, without TFNA-AM
[3] = Anopheles stephensi, test compound 20 ppm, without TFNA-AM, knockdown after 1 hour, read-out: Knock Down, without TFNA-AM
[4] = test compound 0.2 ppm plus 2 ppm TFNA-AM, after 48 hours
[5] = test compound 0.2 ppm plus 2 ppm TFNA-AM, knockdown after 1 hour
[6] = test compound 2 ppm plus 2 ppm TFNA-AM, after 24 hours
[7] = test compound 2 ppm plus 2 ppm TFNA-AM, after 48 hours
[8] = test compound 2 ppm plus 2 ppm TFNA-AM, knockdown after 1 hour
[9] = test compound 20 ppm plus 2 ppm TFNA-AM, after 24 hours
[10] = test compound 20 ppm plus 2 ppm TFNA-AM, after 48 hours
[11] = test compound 20 ppm plus 2 ppm TFNA-AM, knockdown after 1 hour
[12] = test compound 200 ppm plus 2 ppm TFNA-AM, after 24 hours
[13] = test compound 200 ppm plus 2 ppm TFNA-AM, after 48 hours
[14] = test compound 200 ppm plus 2 ppm TFNA-AM, knockdown after 1 hour
[15] = Anopheles stephensi, 24 h, read-out: mortality % 24, without TFNA-AM
[16] = Anopheles stephensi, 48 h, read-out: mortality % 48, without TFNA-AM
[17] = Anopheles stephensi, without TFNA-AM, knockdown after 1 hour, read-out: Knock Down, without TFNA-AM
[18] = test compound 0.02 ppm plus 2 ppm TFNA-AM, after 24 hours
[19] = test compound 0.02 ppm plus 2 ppm TFNA-AM, after 48 hours
[20] = test compound 0.02 ppm plus 2 ppm TFNA-AM, knockdown after 1 hour
[21] = test compound 0.2 ppm plus 2 ppm TFNA-AM, after 24 hours

SMILES | pest or weed control at 0.2 ppm [1] | pest or weed control at 2 ppm [2] | pest or weed control at 20 ppm [3] | mortality % 48, with TFNA-AM [4] | Knock Down, with TFNA-AM [5] | mortality % 24, with TFNA-AM [6] | mortality % 48, with TFNA-AM [7] | Knock Down, with TFNA-AM [8] | mortality % 24, with TFNA-AM [9] | mortality % 48, with TFNA-AM [10] | Knock Down, with TFNA-AM [11] | mortality % 24, with TFNA-AM [12] | mortality % 48, with TFNA-AM [13] | Knock Down, with TFNA-AM [14] | mortality at 0.02 ppm [15] | mortality at 0.2 ppm [15] | mortality at 2 ppm [15] | mortality at 20 ppm [15] | mortality at 0.02 ppm [16] | mortality % 24, with TFNA-AM [21] | also measured
O=[N+]([O-])NC1=NCCN1Cc1ccc(Cl)nc1 [Imidacloprid] | 0% | 0% | 0% | 0% | 100% | 100% | 100% | 100% | 100% | 100% | 100% | 100% | 100% | 100% | – | – | – | – | – | – | mortality at 0.2 ppm (Anopheles stephensi, test compound 0.2 ppm, without TFNA-AM, after 24 hours, read-out: mortality % 24, without TFNA-AM): 0%; mortality at 0.2 ppm (Anopheles stephensi, test compound 0.2 ppm, without TFNA-AM, after 48 hours, read-out: mortality % 48, without TFNA-AM): 0%; mortality at 2 ppm (Anopheles stephensi, test compound 2 ppm, without TFNA-AM, after 24 hours, read-out: mortality % 24, without TFNA-AM): 20%; mortality at 2 ppm (Anopheles stephensi, test compound 2 ppm, without TFNA-AM, after 48 hours, read-out: mortality % 48, without TFNA-AM): 20%; mortality at 20 ppm (Anopheles stephensi, test compound 20 ppm, without TFNA-AM, after 24 hours, read-out: mortality % 24, without TFNA-AM): 20%; mortality at 20 ppm (Anopheles stephensi, test compound 20 ppm, without TFNA-AM, after 48 hours, read-out: mortality % 48, without TFNA-AM): 60%; mortality at 200 ppm (Anopheles stephensi, test compound 200 ppm, without TFNA-AM, after 24 hours, read-out: mortality % 24, without TFNA-AM): 40%; mortality at 200 ppm (Anopheles stephensi, test compound 200 ppm, without TFNA-AM, after 48 hours, read-out: mortality % 48, without TFNA-AM): 60%; pest or weed control at 200 ppm (Anopheles stephensi, test compound 200 ppm, without TFNA-AM, knockdown after 1 hour, adult females, read-out: Knock Down, without TFNA-AM): 40%
CCOC(=O)CC(SP(=S)(OC)OC)C(=O)OCC (centres unmarked) [Malathion] | 20% | 40% | 40% | 0% | 100% | 100% | 100% | 100% | 100% | 100% | 100% | – | – | – | 0% | 0% | 100% | 100% | 0% | 0% | mortality at 0.2 ppm [16]: 0%; mortality at 2 ppm [16]: 100%; mortality at 20 ppm [16]: 100%; pest or weed control at 0.02 ppm [17]: 20%; mortality % 24, with TFNA-AM [18]: 0%; mortality % 48, with TFNA-AM [19]: 0%; Knock Down, with TFNA-AM [20]: 100%
CO/C=C(/C(=O)OC)c1ccccc1COc1cccc(C(F)(F)F)n1 [Picoxystrobin] | – | – | – | 20% | 100% | 80% | 80% | 100% | 100% | 100% | 100% | 100% | 100% | 100% | – | – | – | – | – | 30% | mortality % 24, without TFNA-AM (test compound 0.2 ppm, without TFNA-AM, after 24 hours): 0%; mortality % 48, without TFNA-AM (test compound 0.2 ppm, without TFNA-AM, after 48 hours): 0%; Knock Down, without TFNA-AM (test compound 0.2 ppm, without TFNA-AM, knockdown after 1 hour): 0%; mortality % 24, without TFNA-AM (test compound 2 ppm, without TFNA-AM, after 24 hours): 50%; mortality % 48, without TFNA-AM (test compound 2 ppm, without TFNA-AM, after 48 hours): 0%; Knock Down, without TFNA-AM (test compound 2 ppm, without TFNA-AM, knockdown after 1 hour): 0%; mortality % 24, without TFNA-AM (test compound 20 ppm, without TFNA-AM, after 24 hours): 90%; mortality % 48, without TFNA-AM (test compound 20 ppm, without TFNA-AM, after 48 hours): 100%; Knock Down, without TFNA-AM (test compound 20 ppm, without TFNA-AM, knockdown after 1 hour): 30%; mortality % 24, without TFNA-AM (test compound 200 ppm, without TFNA-AM, after 24 hours): 100%; mortality % 48, without TFNA-AM (test compound 200 ppm, without TFNA-AM, after 48 hours): 100%; Knock Down, without TFNA-AM (test compound 200 ppm, without TFNA-AM, knockdown after 1 hour, adult females): 100%
CNC(=O)Oc1ccccc1OC(C)C [Propoxur] | 0% | 100% | 100% | 100% | 100% | 100% | 100% | 100% | 100% | 100% | 100% | – | – | – | 0% | 100% | 100% | 100% | 0% | 100% | mortality at 0.2 ppm [16]: 100%; mortality at 2 ppm [16]: 100%; mortality at 20 ppm [16]: 100%; pest or weed control at 0.02 ppm [17]: 0%; mortality % 24, with TFNA-AM [18]: 40%; mortality % 48, with TFNA-AM [19]: 40%; Knock Down, with TFNA-AM [20]: 100%
